For this test, the target named is T1, SlyD (EcSlyD) (Escherichia coli, UniProt P0A9K9).
T1 construct: residues 1–165, lacking the unstructured C-terminal tail
The test is described as follows: intrinsic fluorescence titration; supported by 2D 1H-15N HSQC NMR titration, in-cell NMR and PPIase inhibition (Ki […]). Format: binding.

Molecules are shown by their SMILES.

T1 sequence (P0A9K9 1-165): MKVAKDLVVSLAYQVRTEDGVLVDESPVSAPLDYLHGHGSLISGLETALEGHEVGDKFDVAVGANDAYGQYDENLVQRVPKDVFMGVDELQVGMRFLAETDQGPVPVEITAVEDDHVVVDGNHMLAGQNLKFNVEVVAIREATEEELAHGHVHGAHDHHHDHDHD

For the molecule `[Cu+2].c1ccc(-c2cc(-c3c4ccccc4cc4ccccc34)cc(-c3ccccn3)n2)nc1.c1ccc(-c2cc(-c3c4ccccc4cc4ccccc34)cc(-c3ccccn3)n2)nc1` [Cu2+ complex], the dissociation constant (Kd) worked out at 45 µM. This counts as double-digit micromolar.
